Earlier results, collected in patent US20060210492A1 (priority 2005, published 2006).

SMILES: CO[C@H]1/C=C/O[C@@]2(C)Oc3c(C)c(O)c4c(O)c(c5c(nc6cc(C)ccn65)c4c3C2=O)NC(=O)/C(C)=C\C=C\[C@H](C)[C@H](O)[C@@H](C)[C@@H](O)[C@@H](C)[C@H](OC(C)=O)[C@@H]1C [rifaximin, (2S,16Z,18E,20S,21S,22R,23R,24R,25S,26S,27S,28E)-5,6,21,23,25-pentahydroxy-27-methoxy-2,4,11,16,20,22,24,26-octamethyl-2,7-(epoxypentadeca-[1,11,13]trienimino)benzofuro[4,5-e]pyrido[1,2-a]-benzimidazole-1,15(2H)-dione,25-acetate]
- solubility in water: practically insoluble
